Each compound was assayed against recombinant His-tag Wip1(2-420) protein (amino acids #2-420) (Homo sapiens (Human), UniProt O15297) (assay: Wip1(2-420) phosphatase enzyme FDP assay). Settings: fluorescein diphosphate (FDP) substrate, RT 2 hours, fluorescence Ex485/Em535; read-out: WIP1 (Truncated 2-420) FDP Assay: IC50.
recombinant His-tag Wip1(2-420) protein (amino acids #2-420), sequence (O15297 2-420): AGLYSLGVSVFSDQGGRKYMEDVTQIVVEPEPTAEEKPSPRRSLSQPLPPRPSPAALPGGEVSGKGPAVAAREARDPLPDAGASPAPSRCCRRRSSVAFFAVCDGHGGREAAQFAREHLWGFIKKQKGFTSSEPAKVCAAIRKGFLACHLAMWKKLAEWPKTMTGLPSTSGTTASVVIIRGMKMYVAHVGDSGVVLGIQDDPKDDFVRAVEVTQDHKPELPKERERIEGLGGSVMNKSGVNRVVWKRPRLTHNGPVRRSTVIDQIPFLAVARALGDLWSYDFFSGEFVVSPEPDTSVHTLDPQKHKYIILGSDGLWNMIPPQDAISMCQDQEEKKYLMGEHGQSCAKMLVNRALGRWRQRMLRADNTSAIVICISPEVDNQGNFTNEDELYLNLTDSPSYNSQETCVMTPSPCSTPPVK
Type: biochemical
With Cc1cc(NC(=O)[C@H](CC2CCCCC2)NC(=O)c2ccc([C@H](C)Nc3cc(Cl)cnc3C)s2)ccn1 [Compound 252, (2S)-2-({5-[(1S)-1-[(5-chloro-2-methylpyridin-3-yl)amino]ethyl]thiophen-2-yl}formamido)-3-cyclohexyl-N-(2-methylpyridin-4-yl)propanamide] the IC50 was 8 nM. Cc1ncc(Cl)cc1N[C@H](Cc1ccccc1)c1ccc(C(=O)N[C@@H](CC2CCCC2)C(=O)NC23CC(C2)C3)s1 [Compound 215, (2S)-N-{bicyclo[1.1.1]pentan-1-yl}-2-({5-[(1R)-1-[(5-chloro-2-methylpyridin-3-yl)amino]-2-phenylethyl]thiophen-2-yl}formamido)-3-cyclopentylpropanamide] was tested, and the IC50 was 101 nM. For Cc1ncc(Cl)cc1N[C@@H](Cc1ccccc1)c1ccc(C(=O)N[C@@H](CC2CCCC2)C(=O)NC2CC2)s1 [Compound 262, (2S)-2-({5-[(1S)-1-[(5-chloro-2-methylpyridin-3-yl)amino]-2-phenylethyl]thiophen-2-yl}formamido)-3-cyclopentyl-N-cyclopropylpropanamide], the IC50 was 6 nM. Compound C[C@@H](Nc1cc(Cl)cnc1C(=O)O)c1ccc(C(=O)N[C@@H](CC2CCCC2)C(=O)NC2CC2)s1 [Compound 274, 5-chloro-3-{[(1R)-1-(5-{[(1S)-2-cyclopentyl-1-(cyclopropylcarbamoyl)ethyl]carbamoyl}thiophen-2-yl)ethyl]amino}pyridine-2-carboxylic acid] has an IC50 of 811 nM. Cc1ncc(Cl)cc1N[C@@H](C)c1ccc(C(=O)N[C@H](C(=O)NC2CC2)C(C)(C)C)s1 [Compound 235, (2S)-2-({5-[(1S)-1-[(5-chloro-2-methylpyridin-3-yl)amino]ethyl]thiophen-2-yl}formamido)-N-cyclopropyl-3,3-dimethylbutanamide] gave an IC50 of 5660 nM. For Cc1ncc(Cl)cc1N[C@@H](C)c1ccc(C(=O)N[C@@H](CC2CCCC2)C(=O)N[C@H]2C[C@@H](C)C2)s1 [Compound 99, (2S)-2-({5-[(1S)-1-[(5-chloro-2-methylpyridin-3-yl)amino]ethyl]thiophen-2-yl}formamido)-3-cyclopentyl-N-[(1r,3s)-3-methylcyclobutyl]propanamide], the IC50 was 7 nM. Cc1ncc(Cl)cc1N[C@@H](C)c1ccc(C(=O)N[C@@H](CC2CCCC2)C(=O)Nc2cnn(C3CCN(C)CC3)c2)s1 [Compound 152, (2S)-2-({5-[(1S)-1-[(5-chloro-2-methylpyridin-3-yl)amino]ethyl]thiophen-2-yl}formamido)-3-cyclopentyl-N-[1-(1-methylpiperidin-4-yl)-1H-pyrazol-4-yl]propanamide] was tested, and the IC50 was 6 nM. Cc1ncc(Cl)cc1N[C@@H](C)c1ccc(C(=O)N[C@@H](CC2CCCC2)C(=O)Nc2cn[nH]c2)s1 [Compound 227, (2S)-2-({5-[(1S)-1-[(5-chloro-2-methylpyridin-3-yl)amino]ethyl]thiophen-2-yl}formamido)-3-cyclopentyl-N-(1H-pyrazol-4-yl)propanamide] was tested, and the IC50 was 8 nM. Compound COCC(Nc1cc(Cl)cnc1C)c1ccc(C(=O)N[C@@H](CC2CCCC2)C(=O)NC2CC2)s1 (stereo partly drawn) [Compound 176, (2S)-2-[(5-{1-[(5-chloro-2-methylpyridin-3-yl)amino]-2-methoxyethyl}thiophen-2-yl)formamido]-3-cyclopentyl-N-cyclopropylpropanamide] has an IC50 of 21 nM. With Cc1ncc(Cl)cc1N[C@@H](C)c1ccc(C(=O)N[C@@H](CC2CCCC2)C(=O)Nc2ccc(C(N)=O)nc2)s1 [Compound 153, 5-[(2S)-2-({5-[(1S)-1-[(5-chloro-2-methylpyridin-3-yl)amino]ethyl]thiophen-2-yl}formamido)-3-cyclopentylpropanamido]pyridine-2-carboxamide] the IC50 was 5 nM. With Cc1ncc(Cl)cc1NC(c1ccc(C(=O)N[C@@H](CC2CCCC2)C(=O)NC23CC(C2)C3)s1)C(F)(F)F (stereo partly drawn) [Compound 225, (2S)-N-{bicyclo[1.1.1]pentan-1-yl}-2-[(5-{1-[(5-chloro-2-methylpyridin-3-yl)amino]-2,2,2-trifluoroethyl}thiophen-2-yl)formamido]-3-cyclopentylpropanamide] the IC50 was 89 nM.

From patent publication US20240116910A1, “Heterocycles as WIP1 Inhibitors” (PMV Pharmaceuticals, Inc., priority 2022, published 2024)
